Measured values as given in patent publication US20220402925A1, “COMPOUNDS AND METHODS FOR THE TREATMENT OF CYSTIC FIBROSIS” (Flatley Discovery Lab, LLC, priority 2019, published 2022).

What was measured:
F508del CFTR [1] = target: T1, F508del CFTR (Homo sapiens, UniProt P13569, DEL508-508); experiment: CoPo (corrector plus potentiator) equivalent current assay in primary CF airway epithelial cells, test compound added back as potentiator, no VX-770; type: cell-based; parameters: key: +++: NAUC>70% of positive control; ++: NAUC 70-40% of positive control; +: NAUC<40% of positive control; O: no positive response; details: CoPo as % of positive control (VX-809 + acute VX-770)
T1 construct: Primary CF airway epithelial cells were obtained from the UNC Cystic Fibrosis Tissue Procurement and Cell Culture Core; host or cells: primary CF airway epithelial cells
Protocol: It was noticed that many of the test compounds had potentiator activity in addition to corrector activity. These compounds have been denoted as CoPos by FDL and others. To measure both the corrector and potentiator activity of a compound the following changes were made to the test conditions. Cells were treated as usual with the test compounds for at least 24 hours before the experiment. 30 minutes prior to the experiment the test compound is added back to the testing solution to act as a potentiator and no VX-770 (the standard CFTR potentiator) was used with the test compound. The negative control was no longer just DMSO (no corrector) but changed to VX-809 (the standard corrector) plus VX-770 treatment for at least 24 hours. 30 minutes prior to the experiment both VX-809 and VX-770 were added back to the testing solution. This treatment led to a smaller response than the positive control of correcting F508del CFTR with VX-809 alone for at least 24 hours and adding VX-770 acutely with the forskolin addition (just as in the corrector assay).
A CoPo reading of zero means that the test compound has the same forskolin stimulated response as VX-809+VX-770 treatment for 24 hours. A CoPo reading of 1.0 means the test compound has the same forskolin response as cell treated with VX-809 and stimulated with forskolin+VX-770. CoPo activity “+++” refers to an observed CoPo>70% of positive control; CoPo activity “++” refers to an observed CoPo 70-40% of positive control; CoPo activity “+” refers to an observed CoPo<40% of positive control and “O” refers to no positive response.

F508del CFTR [2] = target: T1, F508del CFTR; experiment: Equivalent current assay in primary CF airway epithelial cells (Corrector Activity, NAUC normalized to 3 μM VX809); type: cell-based; details: NAUC as % of positive control (VX-809)
In short: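 Differentiated primary CF airway cells treated basolaterally 24 h at 37° C with compound (0.1% DMSO). Equivalent current recorded after 5 μM benzamil, stimulation with 10 μM forskolin plus 1 μM VX-770 or 3 μM FDL176, and block by 20 μM CFTR-172; vehicle-subtracted AUC normalized to 3 μM VX809; EC50 from sigmoid fit, Hill slope 1.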

T1 sequence (P13569 with tags, fused parts or gaps DEL508-508): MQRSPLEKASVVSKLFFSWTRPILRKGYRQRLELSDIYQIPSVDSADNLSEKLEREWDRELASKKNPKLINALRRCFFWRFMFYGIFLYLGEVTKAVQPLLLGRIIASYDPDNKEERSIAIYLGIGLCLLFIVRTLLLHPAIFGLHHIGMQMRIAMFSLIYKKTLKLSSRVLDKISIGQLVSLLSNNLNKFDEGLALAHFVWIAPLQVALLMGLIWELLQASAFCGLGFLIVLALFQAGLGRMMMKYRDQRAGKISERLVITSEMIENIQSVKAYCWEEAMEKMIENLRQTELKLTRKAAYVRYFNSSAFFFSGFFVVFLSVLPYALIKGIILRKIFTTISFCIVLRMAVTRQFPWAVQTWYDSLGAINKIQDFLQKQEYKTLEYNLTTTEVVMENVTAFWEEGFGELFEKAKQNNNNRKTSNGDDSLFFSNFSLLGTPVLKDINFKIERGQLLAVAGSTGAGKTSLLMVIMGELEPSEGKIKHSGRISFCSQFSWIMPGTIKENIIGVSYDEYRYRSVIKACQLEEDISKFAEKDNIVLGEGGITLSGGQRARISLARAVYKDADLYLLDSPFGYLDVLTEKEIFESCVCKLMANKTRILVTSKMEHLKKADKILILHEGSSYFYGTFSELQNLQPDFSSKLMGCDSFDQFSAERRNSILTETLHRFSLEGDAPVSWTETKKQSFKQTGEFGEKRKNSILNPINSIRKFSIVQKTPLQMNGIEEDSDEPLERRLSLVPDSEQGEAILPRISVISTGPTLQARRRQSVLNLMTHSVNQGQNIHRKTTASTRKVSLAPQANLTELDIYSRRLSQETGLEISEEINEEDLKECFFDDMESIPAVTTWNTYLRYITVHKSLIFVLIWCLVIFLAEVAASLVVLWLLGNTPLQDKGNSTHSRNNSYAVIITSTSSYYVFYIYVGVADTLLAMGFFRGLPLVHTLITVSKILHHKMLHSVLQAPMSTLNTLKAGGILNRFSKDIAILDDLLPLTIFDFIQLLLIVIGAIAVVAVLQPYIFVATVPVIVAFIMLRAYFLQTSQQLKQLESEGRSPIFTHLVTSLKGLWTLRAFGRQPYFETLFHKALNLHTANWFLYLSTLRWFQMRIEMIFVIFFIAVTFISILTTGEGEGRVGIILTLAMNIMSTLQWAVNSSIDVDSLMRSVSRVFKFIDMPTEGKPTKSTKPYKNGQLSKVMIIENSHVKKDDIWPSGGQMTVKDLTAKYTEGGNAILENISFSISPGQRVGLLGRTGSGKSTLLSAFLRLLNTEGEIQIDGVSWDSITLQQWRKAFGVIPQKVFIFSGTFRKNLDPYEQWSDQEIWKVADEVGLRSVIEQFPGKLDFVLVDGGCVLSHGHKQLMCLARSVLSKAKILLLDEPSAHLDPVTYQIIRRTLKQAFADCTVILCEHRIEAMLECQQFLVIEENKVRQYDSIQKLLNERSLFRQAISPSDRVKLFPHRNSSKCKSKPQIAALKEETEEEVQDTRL

CN(C(=O)Cn1nc(-c2cccc(F)c2)c2occc2c1=O)c1ccc2c(c1)OC(F)(F)O2 [Example 8]
CoPo Activity (F508del CFTR [1]): ++ (CoPo 70-40% of positive control) | Corr Activity (NAUC) (F508del CFTR [2]): +++ (NAUC>70% of positive control)

CN(C(=O)Cn1nc(-c2cccc(Cl)c2)c2occc2c1=O)c1ccc2c(c1)OC(F)(F)O2 [Example 9]
CoPo Activity (F508del CFTR [1]): +++ (CoPo>70% of positive control) | Corr Activity (NAUC) (F508del CFTR [2]): +++ (NAUC>70% of positive control)

CCN(C(=O)Cn1nc(-c2cccc(C#N)c2)c2occc2c1=O)c1ccc2c(c1)OC(F)(F)O2 [Example 10]
CoPo Activity (F508del CFTR [1]): +++ (CoPo>70% of positive control) | Corr Activity (NAUC) (F508del CFTR [2]): +++ (NAUC>70% of positive control)

CN(C(=O)Cn1nc(-c2cccc(C#N)c2)c2occc2c1=O)c1ccc2c(c1)OC(F)(F)O2 [Example 11]
CoPo Activity (F508del CFTR [1]): +++ (CoPo>70% of positive control) | Corr Activity (NAUC) (F508del CFTR [2]): +++ (NAUC>70% of positive control)

CCN(C(=O)Cn1nc(-c2cccc(C#N)c2)c2occc2c1=O)c1ccc2c(c1)CCC2 [Example 12]
CoPo Activity (F508del CFTR [1]): +++ (CoPo>70% of positive control) | Corr Activity (NAUC) (F508del CFTR [2]): +++ (NAUC>70% of positive control)

CN(C(=O)Cn1nc(-c2cccc(F)c2)c2nc[nH]c2c1=O)c1ccc2c(c1)OC(F)(F)O2 [Example 21]
CoPo Activity (F508del CFTR [1]): O | Corr Activity (NAUC) (F508del CFTR [2]): + (NAUC<40% of positive control)

CN(C(=O)Cn1nc(-c2cccc(Cl)c2)c2[nH]cnc2c1=O)c1ccc2c(c1)OC(F)(F)O2 [Example 22]
CoPo Activity (F508del CFTR [1]): O | Corr Activity (NAUC) (F508del CFTR [2]): ++ (NAUC 70-40% of positive control)

CN(C(=O)Cn1nc(-c2cccc(C#N)c2)c2[nH]cnc2c1=O)c1ccc2c(c1)OC(F)(F)O2 [Example 23]
CoPo Activity (F508del CFTR [1]): + (CoPo<40% of positive control) | Corr Activity (NAUC) (F508del CFTR [2]): + (NAUC<40% of positive control)

CCN(C(=O)Cn1nc(-c2cccc(C#N)c2)c2[nH]cnc2c1=O)c1ccc2c(c1)OC(F)(F)O2 [Example 24]
CoPo Activity (F508del CFTR [1]): +++ (CoPo>70% of positive control) | Corr Activity (NAUC) (F508del CFTR [2]): +++ (NAUC>70% of positive control)

CCN(C(=O)Cn1nc(-c2cccc(F)c2)c2[nH]cnc2c1=O)c1ccc2c(c1)OC(F)(F)O2 [Example 25]
CoPo Activity (F508del CFTR [1]): + (CoPo<40% of positive control) | Corr Activity (NAUC) (F508del CFTR [2]): +++ (NAUC>70% of positive control)

CN(C(=O)Cn1nc(-c2cccc(F)c2)c2c(c1=O)CCO2)c1ccc2c(c1)OC(F)(F)O2 [Example 160]
CoPo Activity (F508del CFTR [1]): + (CoPo<40% of positive control) | Corr Activity (NAUC) (F508del CFTR [2]): ++ (NAUC 70-40% of positive control)

CCN(C(=O)Cn1nc(-c2cccc(F)c2)c2c(c1=O)CCO2)c1ccc2c(c1)OC(F)(F)O2 [Example 161]
CoPo Activity (F508del CFTR [1]): ++ (CoPo 70-40% of positive control) | Corr Activity (NAUC) (F508del CFTR [2]): +++ (NAUC>70% of positive control)

CCN(C(=O)Cn1nc(-c2cccc(C#N)c2)c2[nH]ncc2c1=O)c1ccc2c(c1)OC(F)(F)O2 [Example 492, 2-(7-(3-cyanophenyl)-4-oxo-1,4-dihydro-5H-pyrazolo[3,4-d]pyridazin-5-yl)-N-(2,2-difluorobenzo[d][1,3]dioxol-5-yl)-N-ethylacetamide]
Corr Activity (NAUC) (F508del CFTR [2]): ++ (NAUC 70-40% of positive control)

CCN(C(=O)Cn1nc(-c2cccc(C#N)c2)c2cn[nH]c2c1=O)c1ccc2c(c1)OC(F)(F)O2 [Example 493, 2-(4-(3-cyanophenyl)-7-oxo-1,7-dihydro-6H-pyrazolo[3,4-d]pyridazin-6-yl)-N-(2,2-difluorobenzo[d][1,3]dioxol-5-yl)-N-ethylacetamide]
Corr Activity (NAUC) (F508del CFTR [2]): ++ (NAUC 70-40% of positive control)

CN(C(=O)Cn1nc(-c2cccc(C#N)c2)c2cn[nH]c2c1=O)c1ccc2c(c1)OC(F)(F)O2 [Example 494]
Corr Activity (NAUC) (F508del CFTR [2]): ++ (NAUC 70-40% of positive control)

CCN(C(=O)Cn1nc(-c2cccc(F)c2)c2cn[nH]c2c1=O)c1ccc2c(c1)OC(F)(F)O2 [Example 495]
Corr Activity (NAUC) (F508del CFTR [2]): ++ (NAUC 70-40% of positive control)

CCN(C(=O)Cn1nc(-c2cccc(Cl)c2)c2cn[nH]c2c1=O)c1ccc2c(c1)OC(F)(F)O2 [Example 496]
Corr Activity (NAUC) (F508del CFTR [2]): ++ (NAUC 70-40% of positive control)

CN(C(=O)Cn1nc(-c2cccc(F)c2)c2cn[nH]c2c1=O)c1ccc2c(c1)OC(F)(F)O2 [Example 497]
Corr Activity (NAUC) (F508del CFTR [2]): + (NAUC<40% of positive control)

CN(C(=O)Cn1nc(-c2cccc(Cl)c2)c2cn[nH]c2c1=O)c1ccc2c(c1)OC(F)(F)O2 [Example 498]
Corr Activity (NAUC) (F508del CFTR [2]): + (NAUC<40% of positive control)

CCN(C(=O)Cn1nc(-c2cccc(F)c2)c2[nH]ncc2c1=O)c1ccc2c(c1)OC(F)(F)O2 [Example 499]
Corr Activity (NAUC) (F508del CFTR [2]): + (NAUC<40% of positive control)

CCN(C(=O)Cn1nc(-c2cccc(Cl)c2)c2[nH]ncc2c1=O)c1ccc2c(c1)OC(F)(F)O2 [Example 500]
Corr Activity (NAUC) (F508del CFTR [2]): ++ (NAUC 70-40% of positive control)

CCN(C(=O)Cn1nc(-c2cccc(F)c2)c2[nH]ccc2c1=O)c1ccc2c(c1)OC(F)(F)O2 [Example 501, N-(2,2-difluorobenzo[d][1,3]dioxol-5-yl)-N-ethyl-2-(7-(3-fluorophenyl)-4-oxo-1,4-dihydro-5H-pyrrolo[2,3-d]pyridazin-5-yl)acetamide]
Corr Activity (NAUC) (F508del CFTR [2]): +++ (NAUC>70% of positive control)

CCN(C(=O)Cn1nc(-c2cccc(Cl)c2)c2[nH]ccc2c1=O)c1ccc2c(c1)OC(F)(F)O2 [Example 502]
Corr Activity (NAUC) (F508del CFTR [2]): +++ (NAUC>70% of positive control)

CCN(C(=O)Cn1nc(-c2cccc(C#N)c2)c2[nH]ccc2c1=O)c1ccc2c(c1)OC(F)(F)O2 [Example 503]
Corr Activity (NAUC) (F508del CFTR [2]): +++ (NAUC>70% of positive control)
